Read-outs that look alike come from different tables or passages of the source.
Tests used:
[1] = Free radical scavenging (DPPH method); conditions: 30 min incubation, absorbance at 515 nm; for EC50: read-out: EC50 antiradical activity (DPPH)
Protocol: (§1) In vitro antioxidant properties of key unprotected phenolic derivatives were analyzed using two different methodologies: free radical scavenging capacity, using the DPPH method (2,2-diphenyl-1-picrylhydrazyl), a HAT (hydrogen atom transfer) procedure, widely-used for both natural and synthetic derivatives, and also the capacity for scavenging H2O2, one of the most common ROS in degenerative diseases, including cancer.
DPPH is a commercially-available stable free radical commonly used for in vitro testing of radical scavenging properties of antioxidants.
Reported methodology was used with minor modifications. To a 60 µM methanolic DPPH solution (1.17 mL), the antioxidant solution (5–7 different solutions, 30 µL) or solvent (control, 30 µL) were added. After 30 min. of incubation in the dark, absorbance was measured at 515 nm, and EC50 values were calculated.

[2] = H2O2 scavenging (phenol red / horseradish peroxidase); conditions: At 50 µM
Protocol: as §1
Herein, following Bahorun’s methodology, in vitro levels of H2O2 were measured in an indirect fashion, by registering the H2O2-mediated oxidation of phenol red in the presence of horseradish peroxidase, to give a chromophore with a maximum absorption at 610 nm. Accordingly, in the presence of an antioxidant agent, there is an inverse correlation between the observed absorbance, and the scavenging properties. Table 2 depicts the H2O2-scavenging properties of compounds prepared herein, and tested at a final 50 µM concentration.
Reported methodology was used with minor modifications.

[3] = system: A549 (non-small cell lung); assay: Antiproliferative activity, NCI protocol; type: cell-based, human
Protocol: (§2) Organochalcogen derivatives prepared herein were evaluated in vitro as potential antiproliferative agents, using a panel of six human tumour cell lines: A549 (non-small cell lung), HBL-100 (breast), HeLa (cervix), SW1573 (non-small cell lung), as drug sensitive lines, T-47D (breast) and WiDr (colon) as drug resistant lines. In addition to precursors 2, 6, 7, 13, 14, 17, 19, ebselen and cisplatin (CDDP) were used as reference drugs. […] In both cases, the NCI protocol, with minor modifications, was followed; selected data, including the selectivity index (S.I.) can be found in Table 3 and full data in Supporting Information (Table S1).
(§3) The in vitro antiproliferative activity was assayed using minor modifications of the protocol of the National Cancer Institute (NCI) of the United States against the six human solid tumor cell and the non-tumor cell lines tested.

HBL-100 (breast) = assay: Antiproliferative activity, NCI protocol; type: cell-based, human
Protocol: as §2, §3

HeLa (cervix) = assay: Antiproliferative activity, NCI protocol; type: cell-based, human
Protocol: as §2, §3

[4] = system: SW1573 (non-small cell lung); assay: Antiproliferative activity, NCI protocol; type: cell-based, human; conditions: Homo sapiens
Protocol: as §2, §3

T-47D (breast) = assay: Antiproliferative activity, NCI protocol; type: cell-based, human; conditions: Homo sapiens, T47D, read-out: GI50 T-47D (Breast)
Protocol: as §2, §3

WiDr (colon) = assay: Antiproliferative activity, NCI protocol; type: cell-based, human; conditions: Homo sapiens, WiDr, read-out: GI50 WiDr (Colon)
Protocol: as §2, §3

BJ-hTert (fibroblasts) = assay: Antiproliferative activity on non-tumour cells, NCI protocol; type: cell-based, human; conditions: Homo sapiens, Fibroblast, read-out: GI50 BJ-hTert (Fibroblasts)
Protocol: as §2, §3

SW1573 = assay: P-glycoprotein assay, wild type line; type: cell-based; conditions: Homo sapiens, 48 h exposure
Protocol: (§4) This assay allows prediction of whether a certain chemotherapeutic agent could develop chemoresistance when behaving as a P-gp substrate, one of the most common efllux-pumps used for the extrusion of cell xenobiotics. For that purpose, a cell line-based assay was used, in particular the lung cancer cell line in its wild type (SW1573), and its variant overexpressing P-gp (Sw1573/Pgp). Moreover, compounds were tested in the presence and in the absence of verapamil, which is known to inhibit P-gp. Chemotherapeutic agents paclitaxel (PTX) and vinblastine (VB) are used herein as reference compounds. In this assay, the resistance factor (Rf) for a certain compound is defined as the ratio of GI50 in the cell line overexpressing P-gp and the wild one (Table 4), high values of Rf denoting that the compound behaves as a P-gp substrate, and thus, chemoresistance through this mechanism will probably take place.

[5] = P-glycoprotein assay, line overexpressing P-gp; type: cell-based, human; conditions: human, 48 h exposure
Protocol: as §4

SW1573/Pgp = assay: P-glycoprotein assay, line overexpressing P-gp; type: cell-based, human; conditions: ratio between GI50 values in SW1573/PGP and SW1573 cells
Protocol: as §4

[6] = system: six human tumour cell lines (A549, HBL-100, HeLa, SW1573, T-47D, WiDr); assay: Antiproliferative activity, panel of six human tumour cell lines; type: cell-based
Protocol: as §2, §3

For `c1cc2c(cc1C[Se][Se]Cc1ccc3c(c1)OCO3)OCO2` [Compound 39, Bis[(3’, 4’-methylenedioxyphenyl)methyl]diselenide], the “EC50 antiradical activity (DPPH)” value [1] was “complete impairment of activity”, the EC50 [1] was > 250 µM and the “% Scavenging of H2O2” value [2] was “complete loss of ROS scavenging properties and ---”. It also gave a GI50 ([3]; Homo sapiens, A549; read-out: GI50 A549 (Lung)) of 1.2 ± 0.3 µM, a GI50 (HBL-100 (breast); Homo sapiens, HBL-100; read-out: GI50 HBL-100 (Breast)) of 2.9 ± 0.6 µM and a GI50 (HeLa (cervix); Homo sapiens, HeLa; read-out: GI50 HeLa (Cervix)) of 2.4 ± 1.4 µM. It also gave a GI50 ([4]; SW1573, Table S1, read-out: GI50 SW1573 (Lung)) of 3.2 ± 0.9 µM, a GI50 (T-47D (breast); drug resistant line) of 2.9 ± 0.4 µM and a GI50 (WiDr (colon); drug resistant line) of 1.6 ± 0.3 µM. The GI50 (BJ-hTert (fibroblasts); non-tumour cell line) was 3.9 ± 1 µM, the GI50 (SW1573; with verapamil, read-out: GI50 SW153 w Verapamil) was 2.5 ± 0.1 µM and the GI50 (SW1573; without verapamil, read-out: GI50 SW1573 w/o Verapamil) was 3 ± 0.5 µM. For the same compound, the GI50 at 48 h ([5]; with verapamil (concentration not stated), with verapamil, read-out: GI50 SW1573/PGP w Verapamil) was 5.1 ± 0.4 µM, the GI50 at 48 h ([5]; without verapamil, read-out: GI50 SW1573/PGP w/o Verapamil) was 18 ± 0.1 µM and the “Rf w Verapamil” value (SW1573/Pgp; with verapamil) was 2.0. The “Rf w/o Verapamil” value (SW1573/Pgp; without verapamil) was 6.0 and the “GI50 over the tumour cell lines (range, bound or words)” value ([6]; summary over the tested tumour cell lines, highest tested concentration 100 µM) was “low micromolar‒submicromolar activities”.
With `O=C(CCC[Se][Se]CCCC(=O)NCCc1ccc2c(c1)OCO2)NCCc1ccc2c(c1)OCO2` [Compound 46, 4,4’-Diselenobis{N-[2′’-(3′’’,4′’’-Methylenedioxyphenyl)ethyl]butanamide}] the “EC50 antiradical activity (DPPH)” value [1] was “complete impairment of activity”, the EC50 [1] was > 250 µM and the “% Scavenging of H2O2” value [2] was “complete loss of ROS scavenging properties and ---”. It also gave a GI50 ([3]; Homo sapiens, A549, read-out: GI50 A549 (Lung)) of 0.27 ± 0.02 µM, a GI50 (HBL-100 (breast); Homo sapiens, HBL-100, read-out: GI50 HBL-100 (Breast)) of 0.25 ± 0.02 µM and a GI50 (HeLa (cervix); Homo sapiens, HeLa, read-out: GI50 HeLa (Cervix)) of 0.12 ± 0.01 µM. For the same compound, the GI50 ([4]; SW1573, read-out: GI50 SW1573 (Lung)) was 0.3 ± 0.03 µM, the GI50 (T-47D (breast)) was 0.19 ± 0.04 µM and the GI50 (WiDr (colon)) was 0.25 ± 0.06 µM. The GI50 (BJ-hTert (fibroblasts)) was 1 ± 0.1 µM, the “fold improvement of potency against tumour cell lines compared to 16” value ([6]; 46 (acetal) versus 16 (free catechol)) was “up to 30 fold” and the GI50 ([6]; Homo sapiens, read-out: GI50 over the tumour cell lines (range, bound or words)) was 0.12 to 0.3 µM. For the same compound, the “fold increase in activity compared to CDDP” value ([6]; multidrug resistant cell lines (T-47D, WiDr)) was ≤ 104 fold.

Reference: paper PMC7692337, “Masked Phenolic-Selenium Conjugates: Potent and Selective Antiproliferative Agents Overcoming P-gp Resistance” (Pharmaceuticals, 2020)
